Test results as given in patent publication US20250367209A1 (SOUTHERN RESEARCH INSTITUTE, priority 2022, published 2025).
≈ marks a conversion by molar mass, not a printed value. Entries after “also recorded” stand apart in the source; their conditions may differ.

What was measured:
Fyn kinase = Fyn kinase (Homo sapiens (Human), UniProt P06241); experiment: Custom panel for Fyn kinase activity; assay type: biochemical; details: 3 μM
Description: 69 and compound no. […] Since Fyn was not included in that panel, a custom panel was completed for Fyn kinase activity.

primary rat neurons [1] = experiment: MAP2 ICC assay of Aβ-induced neurite degeneration; assay type: cell-based; details: compound 0.3, 3 or 15 μM, 90-minute pretreatment, 2.5 μM Aβ
Description: Primary neuron cultures: All animal procedures were approved by the Institutional Animal Care and Use Committee at the University of Alabama at Birmingham (UAB). As before (Rush, et al. (2020) Neurobiol Dis 134, 104668; Voskobiynyk, et al. (2020) eLife 9, e57354), primary rat neurons were isolated from timed-pregnant Sprague-Dawley rats. Briefly, dams were euthanized with isoflurane anesthesia asphyxiation, and hippocampal tissue was isolated from E19 embryos in Hibernate E, then digested in papain for 10 minutes at 37° C. Neurons were triturated into a single cell suspension in Neurobasal supplemented with B-27, L-Glutamine, and 10% FBS, then plated in 96-well plates coated with PDL and laminin at 30,000 neurons per well in 200 uL medium or in 24-well coated plates with or without coverslips at 50,000 per well. Cultures were maintained at 37° C. with 5% CO2. Twenty-four hours after plating (DIV1), two 50% media changes with Neurobasal plus B-27 and L-Glutamine without FBS, and 5 μM cytosine β-D-arabinofuranoside was added to prevent glial proliferation. […]
For the MAP2 ICC assay, neurons were fixed in 4% PFA and 4% sucrose at 37° C. for 30 minutes, then washed 3×5 minutes in PBS. […] Intact neurite length was measured in an unbiased, automated manner using Harmony software, averaged from four images from each well. […]

[2] = Oral administration to mice, brain and plasma concentrations; assay type: in vivo; details: male CD1 mice; for brain/plasma ratio: PO 5 mg/kg; for presence in plasma and brain after oral administration: PO 5 mg/kg, 1, 2 and 4 hours
Protocol: Compounds were sent to Pharmaron to determine if they were blood-brain barrier permeable. Compounds were formulated to 1 mg/mL in 10% NMP, 60% PEG400, 30% saline, then male CD1 mice were treated PO at 5 mg/kg. Brain and plasma concentrations were measured using HPLC-MS at 1 hour, 2 hours, and 4 hours post-treatment.

Tau-PxxP5/6 = Tau-PxxP5/6 (Homo sapiens (Human), UniProt P10636); experiment: Isothermal titration calorimetry, Tau-PxxP5/6 peptide; assay type: binding
Protocol: ITC experiments were performed on an Auto-iTC200 system (Malvern Instruments, Westborough, MA). ITC sample cell contained ˜120 μM full-length Tau, FynSH3, or Tau-PxxP5/6 (titrand), and the syringe contained 1 mM compound no. 69 (titrant). Each titration experiment consisted of 16 injections of […] of titrant into titrand at 25° C. Background mixing heat was determined from injections of titrant into the same buffer without titrand. Data analysis was performed using the built-in analysis module in Origin 7 provided by the ITC manufacturer. The normalized titration heat was fitted to a “one set of sites” model to determine the best-fit binding parameters.

primary rat neurons [3] = experiment: Modified MTT assay of Aβ toxicity in primary neurons; assay type: cell-based; details: for Aβ toxicity / Aβ-induced membrane trafficking dysfunction, modified MTT assay: compound 0.3, 3 or 15 μM, 90-minute pretreatment, 2.5 μM Aβ, 24 hours; for MTT: Table 3, Aβ toxicity in primary neurons
Description: Primary neuron cultures: All animal procedures were approved by the Institutional Animal Care and Use Committee at the University of Alabama at Birmingham (UAB). As before (Rush, et al. (2020) Neurobiol Dis 134, 104668; Voskobiynyk, et al. (2020) eLife 9, e57354), primary rat neurons were isolated from timed-pregnant Sprague-Dawley rats. Briefly, dams were euthanized with isoflurane anesthesia asphyxiation, and hippocampal tissue was isolated from E19 embryos in Hibernate E, then digested in papain for 10 minutes at 37° C. Neurons were triturated into a single cell suspension in Neurobasal supplemented with B-27, L-Glutamine, and 10% FBS, then plated in 96-well plates coated with PDL and laminin at 30,000 neurons per well in 200 uL medium or in 24-well coated plates with or without coverslips at 50,000 per well. Cultures were maintained at 37° C. with 5% CO2. Twenty-four hours after plating (DIV1), two 50% media changes with Neurobasal plus B-27 and L-Glutamine without FBS, and 5 μM cytosine β-D-arabinofuranoside was added to prevent glial proliferation. 50% media changes were performed at DIV7 and DIV14 with serum-free supplemented Neurobasal and experiments were started at DIV19.
Aβ oligomer preparation: As before (Rush, et al. (2020) Neurobiol Dis 134, 104668), lyophilized recombinant Aβ42 was dissolved in HFIP, dried overnight, then stored at −20° C. until oligomerization. To oligomerize, Aβ was dissolved in DMSO to 1 mM, then diluted to 100 µM in PBS, then sonicated and left on ice for 24 hours. Immediately prior to use, Aβ was centrifuged at 4° C. for 10 minutes at 14,000×g. Vehicle was prepared as well in identical fashion except lacking the Aβ peptide.
Aβ toxicity assays: The modified MTT and MAP2 assays were adapted from a recent study (Rush, et al. (2020) Neurobiol Dis 134, 104668). Briefly, at DIV19, media on the neurons was reduced to […], then compound was added to final concentration of 0 μM, 0.3 μM, 3 μM, or 15 μM with even amounts of DMSO. After 90-minute pretreatment with compound, 2.5 μM Aβ was added.
The modified MTT assay was performed 24 hours after Aβ application. 100 μM MTT was applied to neurons and incubated at 37° C. for one hour. Media was removed, then replaced with 15 μL 1.6% Tween20 in PBS and incubated on a shaker at 100 rpm for 5 minutes. The Tween was then removed and transferred to a 384-well clear-bottom plate and replaced with 15 μL isopropanol. Plates were again agitated for 5 minutes at RT, then isopropanol was transferred to the 384-well plate. Absorbance was then read at 590 nm on a plate reader, with 660 nm used as a reference. The ratio of Tween soluble MTT to isopropanol soluble (Tween-insoluble) MTT was calculated for each sample, then normalized to the vehicle group average.

[4] = Partition coefficient (LogD); assay type: physicochemical; details: Table 3; read-out: ADME LogD
Description: (§1) A computational analysis of the top five hits was then completed to assess the physical attributes of the compounds emerging from the HTS. The target profile for drug-like properties included evaluation of molecular weight (MW), total polar surface area (PSA, the surface sum of all polar atoms on the molecule), solubility, metabolic stability, and partition coefficient (LogD). In general, MW<[…] and PSA <70 Å^2 were targeted, which generally allows for blood-brain barrier (BBB) permeability. Compounds with PSA >100 A^2 are generally poor at permeating cell membranes. Solubility was targeted at >10 μM at pH 7.4 and 40-60% of compound remaining after 60 minutes of incubation in mouse or human liver microsomes (an indicator of compound stability after first-pass metabolism). LogD is the log of the ratio of concentrations of a compound in two immiscible solvents at equilibrium. Values ranging from 2-4 were targeted, typical for CNS drugs. Based on these criteria, compound no. 55 was selected as the top hit for optimization. Compound no.

[5] = Metabolic stability in human liver microsomes; assay type: in vitro ADME; details: Table 3, read-out: ADME t1/2 (min): HLMt1/2
Description: as §1

[6] = Metabolic stability in mouse liver microsomes; assay type: in vitro ADME; details: mouse, liver microsomes
Solubility = assay type: physicochemical; details: for ADME Sol (μM): Table 3
[7] = Table 3, read-out: ADME t1/2 (min): MLMt1/2

Chain of Fyn kinase (P06241 whole entry): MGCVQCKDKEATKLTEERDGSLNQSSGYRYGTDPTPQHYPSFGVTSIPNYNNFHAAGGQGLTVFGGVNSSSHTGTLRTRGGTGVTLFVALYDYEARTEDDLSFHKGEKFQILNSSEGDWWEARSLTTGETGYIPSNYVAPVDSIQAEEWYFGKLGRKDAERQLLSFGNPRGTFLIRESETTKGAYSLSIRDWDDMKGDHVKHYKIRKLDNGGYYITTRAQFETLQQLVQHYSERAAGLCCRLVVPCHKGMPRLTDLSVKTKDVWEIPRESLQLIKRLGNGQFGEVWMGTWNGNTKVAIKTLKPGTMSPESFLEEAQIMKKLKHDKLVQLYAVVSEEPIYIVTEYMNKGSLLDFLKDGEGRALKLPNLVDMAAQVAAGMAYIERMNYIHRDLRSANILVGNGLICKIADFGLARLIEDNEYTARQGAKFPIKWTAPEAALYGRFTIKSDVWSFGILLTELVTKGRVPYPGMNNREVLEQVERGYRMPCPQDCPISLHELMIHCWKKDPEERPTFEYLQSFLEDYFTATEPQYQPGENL

Structure (SMILES)	Fyn kinase inhibition (Fyn kinase)	Aβ-induced neurite degeneration, MAP2 assay (primary rat neurons [1])	brain/plasma ratio [2]	presence in plasma and brain after oral administration [2]	interaction with Tau-PxxP5/6 peptide, ITC (Tau-PxxP5/6)	Aβ toxicity / Aβ-induced membrane trafficking dysfunction, modified MTT assay (primary rat neurons [3])	logD [4]	half-life [5]	half-life ([6]; Table 2, read-out: MLM t1/2)	half-life [6, 7]	ADME Sol (μM) (Solubility)	MTT (primary rat neurons [3])	Solubility (Solubility; pH 7.4, aqueous buffer, Table 2)
O=C(CN1CCOc2ccccc21)Nc1nnc(-c2ccccn2)[nH]1 [compound no. 69]	did not inhibit Fyn	prevented; also recorded: ameliorates Aβ-induced neurite degeneration	0.067	presence in both plasma and brain	No interaction was observed	prevented Aβ-induced membrane trafficking dysfunction; also recorded: ameliorates Aβ toxicity; also recorded: inhibited Aβ toxicity							
O=C(CCN1C(=O)CSc2ccccc21)Nc1nnc(-c2ccccn2)[nH]1 [compound no. 55]		prevented Aβ-induced neurite degeneration; also recorded: ameliorates Aβ-induced neurite degeneration				prevented Aβ-induced membrane trafficking dysfunction; also recorded: ameliorates Aβ toxicity; also recorded: inhibited Aβ toxicity							
O=C(CN1C(=O)CSc2cc(F)ccc21)Nc1nnc(-c2ccccn2)[nH]1 [compound no. 12, 2-(7-FLUORO-3-oxo-2H-BENZO[B][1,4]THIAZIN-4(3H)-YL)-N-(5-(PYRIDIN-2-YL)-4H-1,2,4-TRIAZOL-3-YL)ACETAMIDE]				detected in plasma, it did not cross the BBB and was not present in brain		inhibited Aβ toxicity; also recorded: did ameliorate Aβ toxicity	2.4	> 300 min	146 min	146 min	Sol = 41 μM	Active	
O=C(CN1CCOc2ccccc21)Nc1nnc(-c2ccccn2)[nH]1 [compound 47, 2-(2,3-DIHYDRO-4H-BENZO[B][1,4]OXAZIN-4-YL)-N-(5-(PYRIDIN-2-YL)-4H-1,2,4-TRIAZOL-3-YL)ACETAMIDE]							1.8	93 min	2 min		Sol = 54 μM	Active	80.2 µM (≈ 27 µg/mL)
O=C(CN1CCCc2ccccc21)Nc1nnc(-c2ccccn2)[nH]1 [compound no. 45, 2-(3,4-DIHYDROQUINOLIN-1(2H)-YL)-N-(5-(PYRIDIN-2-YL)-4H-1,2,4-TRIAZOL-3-YL)ACETAMIDE]						inhibited Aβ toxicity; also recorded: did ameliorate Aβ toxicity	2.3	66 min				Active	
Cc1ccc2c(c1)SCC(=O)N2CC(=O)Nc1nnc(-c2ccccn2)[nH]1 [compound no. 23, 2-(7-METHYL-3-OXO-2H-BENZO[B][1,4]THIAZIN-4(3H)-YL)-N-(5-(PYRIDIN-2-YL)-4H-1,2,4-TRIAZOL-3-YL)ACETAMIDE]						inhibited Aβ toxicity; also recorded: did ameliorate Aβ toxicity	2.2	133 min			Sol = 57 μM	Active	
O=C(CN1C(=O)CSc2cc(F)c(F)cc21)Nc1nnc(-c2ccccn2)[nH]1 [compound no. 14, 2-(6,7-DIFLUORO-3-OXO-2H-BENZO[B][1,4]THIAZIN-4(3H)-YL)-N-(5-(PYRIDIN-2-YL)-4H-1,2,4-TRIAZOL-3-YL)ACETAMIDE]						did not ameliorate Aβ toxicity	1.9	137 min				Active	
O=C(CN1CCSc2ccccc21)Nc1nnc(-c2ccccn2)[nH]1 [compound no. 20, 2-(2H-BENZO[B][1,4]THIAZIN-4(3H)-YL)-N-(5-(PYRIDIN-2-YL)-4H-1,2,4-TRIAZOL-3-YL)ACETAMIDE]			0.06	detected in both plasma and brain			2.3	85 min		9 min	Sol = 14 μM	Insoluble	
O=C(CN1C(=O)CSc2cc(Cl)ccc21)Nc1nnc(-c2ccccn2)[nH]1 [compound no. 13, 2-(7-CHLORO-3-OXO-2H-BENZO[B][1,4]THIAZIN-4(3H)-YL)-N-(5-(PYRIDIN-2-YL)-4H-1,2,4-TRIAZOL-3-YL)ACETAMIDE]						inhibited Aβ toxicity; also recorded: did ameliorate Aβ toxicity	3.1	> 120 min				Active	
